Measured values published in patent publication US20080221135A1, “COMBINATION THERAPY” (Bristol-Myers Squibb Company, priority 2005, published 2008).

Columns and labels:
[1] = system: NSCLC; conditions: chemo-naive or pre-treated NSCLC; cited from earlier work
[2] = system: variety of tumor types, including NSCLC; conditions: cited from earlier work
[3] = system: tumor; test: preclinical anti-tumor activity; format: in vivo; conditions: oral Compound I versus I.V. paclitaxel
[4] = oral bioavailability in dog; format: in vivo
[5] = system: tumor; test: Phase I data, Compound I single agent; format: in vivo, humans
[6] = oral bioavailability in rats; format: in vivo; conditions: rat
[7] = system: NSCLC; test: single-agent treatment of NSCLC patients; format: in vivo, humans; conditions: Compound I
[8] = oral bioavailability in humans; conditions: human, in vivo, 45% coefficient of variation

SMILES | activity in treatment of NSCLC [1] | tolerability profile [1] | anti-tumor activity in pre-clinical models [2] | preclinical anti-tumor activity [3] | oral bioavailability [4] | anti-tumor activity ([5]; continuous weekly schedule, doses of 120 mg/m^2 and higher) | tolerability ([5]; doses of 120 and 200 mg/m^2) | dose limiting toxicities ([5]; twice weekly schedule, doses of 60 mg/m^2 and higher, versus weekly schedule) | oral bioavailability [6] | activity in treatment of pre-treated NSCLC [7] | main toxicity ([7]; pre-treated NSCLC) | bioavailability [8]
Nc1nc2[nH]cc(CCc3ccc(C(=O)N[C@@H](CCC(=O)O)C(=O)O)cc3)c2c(=O)[nH]1 [Pemetrexed] | single-agent activity | acceptable tolerability profile | has shown anti-tumor activity |  |  |  |  |  |  |  |  | 
COC(=O)O[C@@]12CO[C@@H]1C[C@H](O)[C@@]1(C)C(=O)[C@H](OC(C)=O)C3=C(C)[C@@H](OC(=O)[C@H](O)[C@@H](NC(=O)OC(C)(C)C)C(C)(C)C)C[C@@](O)([C@@H](OC(=O)c4ccccc4)[C@H]21)C3(C)C [Compound I, 3′-tert-butyl-3′-N-tert-butyloxycarbonyl-4-deacetyl-3′-dephenyl-3′-N-debenzoyl-4-O-methoxycarbonyl-paclitaxel] |  |  |  | comparable to intravenous (I.V.) paclitaxel | good oral bioavailability | shows anti-tumor activity | acceptable | may reduce dose limiting toxicities | good oral bioavailability | promising early signs of activity | transient, manageable neuropathy | 24%
